Consider 24 molecules from patent US20200079773A1, “CARBOXYLIC ACID DERIVATIVES OF PYRIDOQUINAZOLINES USEFUL AS PROTEIN KINASE INHIBITORS” (ONCOSTELLAE, S.L., priority 2017, published 2020).

Structures are written as SMILES. Some results are limits rather than exact numbers.

Common to all, as to type: biochemical
The target in one assay is T1, JAK3 (Homo sapiens, UniProt P52333).
T1 construct: purchased Carna Biosciences 08-046
The experiment in a line: Functional assay of protein kinases (Caliper mobility shift), JAK3. The settings on record: ATP 8 μM, 30 min incubation. As to the method: (§1) Functional Assays of Protein Kinases
(§2) The functional assays of protein kinases were carried out in 384-well plates using a final volume of 30 μl. […] The reaction was reads in a “Caliper EzReader LabChip 3000” (Caliper, Hopkinton, Mass.) reader, based on electrophoretic mobility of the fluorescent substrate and the phosphorylated product.
(§3) The inhibition percentages were calculated by comparison between control reactions, for 100% of inhibition and reactions with only DMSO for 0% of inhibition.

Another assay has as its target T2, JAK2 (Homo sapiens, UniProt O60674).
T2 construct: purchased Carna Biosciences 08-045
Description: Functional assay of protein kinases (Caliper mobility shift), JAK2. The following applies: ATP 300 μM, 30 min incubation. As to the method:
as §1, §2, §3

The target in another assay is T3, JAK1 (Homo sapiens, UniProt P23458).
T3 construct: purchased Carna Biosciences 08-144
The experiment in a line: Functional assay of protein kinases (Caliper mobility shift), JAK1. The settings on record: ATP 100 μM, 150 min incubation. As to the method:
as §1, §2, §3

A further assay addresses T4, TYK2 (Homo sapiens, UniProt P29597).
T4 construct: purchased Carna Biosciences 08-147
T4 sequence (P29597 871-1187 limits assumed): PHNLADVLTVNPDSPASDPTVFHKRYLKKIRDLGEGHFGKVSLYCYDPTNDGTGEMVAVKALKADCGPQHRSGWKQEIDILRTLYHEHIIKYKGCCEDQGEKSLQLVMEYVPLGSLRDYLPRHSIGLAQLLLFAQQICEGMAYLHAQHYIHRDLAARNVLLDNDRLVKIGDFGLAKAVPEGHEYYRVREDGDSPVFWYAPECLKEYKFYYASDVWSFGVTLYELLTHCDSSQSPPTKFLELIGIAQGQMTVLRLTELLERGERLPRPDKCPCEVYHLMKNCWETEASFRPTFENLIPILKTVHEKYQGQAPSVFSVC
The experiment in a line: Functional assay of protein kinases (Caliper mobility shift), TYK2. The following applies: ATP 20 μM, 45 min incubation. As to the method: as §1, §2, §3

T3 sequence (P23458 850-1154 limits assumed): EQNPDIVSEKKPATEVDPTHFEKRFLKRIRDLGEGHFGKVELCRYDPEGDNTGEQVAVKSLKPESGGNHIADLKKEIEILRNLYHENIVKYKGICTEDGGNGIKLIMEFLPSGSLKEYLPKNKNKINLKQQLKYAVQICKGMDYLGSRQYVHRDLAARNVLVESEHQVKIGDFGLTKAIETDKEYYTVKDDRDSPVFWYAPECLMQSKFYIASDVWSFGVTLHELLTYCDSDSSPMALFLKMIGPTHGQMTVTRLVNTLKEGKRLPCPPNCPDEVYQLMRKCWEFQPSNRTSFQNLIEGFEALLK
T1 sequence (P52333 795-1124 limits assumed): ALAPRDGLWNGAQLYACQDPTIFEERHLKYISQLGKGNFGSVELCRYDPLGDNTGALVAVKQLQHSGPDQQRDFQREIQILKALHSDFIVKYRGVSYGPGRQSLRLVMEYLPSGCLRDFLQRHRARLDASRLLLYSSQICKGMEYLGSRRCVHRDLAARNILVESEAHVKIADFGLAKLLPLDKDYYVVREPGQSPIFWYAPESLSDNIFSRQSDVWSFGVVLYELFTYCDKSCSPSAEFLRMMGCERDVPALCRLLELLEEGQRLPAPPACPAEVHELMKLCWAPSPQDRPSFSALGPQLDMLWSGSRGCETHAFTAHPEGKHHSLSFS
T2 sequence (O60674 826-1132 limits assumed): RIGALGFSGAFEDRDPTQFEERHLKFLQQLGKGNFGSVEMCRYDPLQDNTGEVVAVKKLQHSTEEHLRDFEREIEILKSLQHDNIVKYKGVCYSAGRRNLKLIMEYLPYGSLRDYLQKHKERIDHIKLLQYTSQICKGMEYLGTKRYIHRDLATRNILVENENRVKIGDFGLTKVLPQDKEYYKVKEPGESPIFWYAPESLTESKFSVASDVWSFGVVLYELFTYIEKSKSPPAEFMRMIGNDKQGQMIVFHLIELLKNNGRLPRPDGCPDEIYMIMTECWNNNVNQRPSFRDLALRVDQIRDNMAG

As to `O=C(NC1CCC(C(=O)O)CC1)c1cccn2c(=O)c3cc(C4CC4)ccc3nc12` (stereo not shown) [Example 1, 4-(2-cyclpropyl-11-oxo-11H-pyrido[2,1-b]quinazoline-6-carboxamido)cyclohexane-1-carboxylic acid], the IC50 (commonly the concentration needed to halve the response being measured) is below 100 nM at JAK3, at least 1000 nM at JAK2 and at least 1000 nM at JAK1.

Turning to `Cc1ccc(-c2ccc3nc4c(C(=O)N[C@H]5CC[C@@H](C(=O)O)CC5)cccn4c(=O)c3c2)s1` [Example 2, (1S,4S)-4-(2-(5-methylthiophen-2-yl)-11-oxo-11H-pyrido[2,1-b]quinazoline-6 carboxamido)cyclohexane-1-carboxylic acid], the IC50 on JAK3 and at TYK2 was below 100 nM each time.

Turning to `O=C(NC1CCC(C(=O)O)CC1)c1cccn2c(=O)c3cc(C4CC4)ccc3nc12` [Example 4, (1R,4R)-4-(2-cyclopropyl-11-oxo-11H-pyrido[2,1-b]quinazoline-6-carboxamido)cyclohexane-1-carboxylic acid], the IC50 at JAK3 was 100 to 1000 nM; on JAK2 it was at least 1000 nM; at TYK2, at least 1000 nM; at JAK1 it was at least 1000 nM.

As to `O=C(NC12CCC(C(=O)O)(CC1)C2)c1cccn2c(=O)c3cc(C4CC4)ccc3nc12` [Example 7, 4-(2-cyclpropyl-11-oxo-11H-pyrido[2,1-b]quinazoline-6-carboxamido)bicyclo[2.2.1]heptane-1-carboxylic acid], the IC50 on JAK3 was 100 to 1000 nM; on JAK2, at least 1000 nM; on TYK2 it was 100 to 1000 nM; at JAK1, at least 1000 nM.

On to `Cc1cc(C(=O)N[C@H]2CC[C@@H](C(=O)O)CC2)c2nc3ccccc3c(=O)n2c1` [Example 11, (1S,4S)-4-(8-methyl-11-oxo-11H-pyrido[2,1-b]quinazoline-6-carboxamido)cyclohexane-1-carboxylic acid], for which the IC50 was at least 1000 nM on JAK3, at least 1000 nM on JAK2, 100 to 1000 nM at TYK2 and at least 1000 nM at JAK1.

On to `O=C(NC1CCC(C(=O)O)CC1)c1cccn2c(=O)c3cc(O)ccc3nc12` (stereo not shown) [Example 19, 4-(2-hydroxy-11-oxo-11H-pyrido[2,1-b]quinazoline-6-carboxamido)cyclohexane-1-carboxylic acid], for which the IC50 at JAK3 and at TYK2 was 100 to 1000 nM throughout.

Take `O=C(N[C@H]1CC[C@@H](C(=O)O)CC1)c1cccn2c(=O)c3cc(-c4cccc(F)c4)ccc3nc12` [Example 29, (cis)-4-(2-(3-fluorophenyl)-11-oxo-11H-pyrido[2,1-b]quinazoline-6-carboxamido)cyclohexane-1-carboxylic acid]: the half-maximal inhibitory concentration (IC50) at JAK3 and at TYK2 was below 100 nM in each case.

Regarding `O=C(N[C@H]1CC[C@@H](C(=O)O)CC1)c1cccn2c(=O)c3cc(-c4ccc(F)c(F)c4)ccc3nc12` [Example 30, (cis)-4-(2-(3,4-difluorophenyl)-11-oxo-11H-pyrido[2,1-b]quinazoline-6-carboxamido)cyclohexane-1-carboxylic acid], the concentration for half-maximal inhibition (IC50) on JAK3 and on TYK2 was below 100 nM each time.

`N#Cc1ccc(-c2ccc3nc4c(C(=O)N[C@H]5CC[C@@H](C(=O)O)CC5)cccn4c(=O)c3c2)cc1` [Example 31, (cis)-4-(2-(4-cyanophenyl)-11-oxo-11H-pyrido[2,1-b]quinazoline-6-carboxamido)cyclohexane-1-carboxylic acid]: the half-inhibitory concentration (IC50) at JAK3 and at TYK2 was below 100 nM in each case.

As to `N#Cc1cccc(-c2ccc3nc4c(C(=O)N[C@H]5CC[C@@H](C(=O)O)CC5)cccn4c(=O)c3c2)c1` [Example 32, (cis)-4-(2-(3-cyanophenyl)-11-oxo-11H-pyrido[2,1-b]quinazoline-6-carboxamido)cyclohexane-1-carboxylic acid], the IC50 at JAK3 and on TYK2 was below 100 nM throughout.

In the case of `O=C(O)c1ccc(-c2ccc3nc4c(C(=O)N[C@H]5CC[C@@H](C(=O)O)CC5)cccn4c(=O)c3c2)cc1` [Example 33, 4-(6-(((cis)-4-carboxycyclohexyl)carbamoyl)-11-oxo-11H-pyrido[2,1-b]quinazolin-2-yl)benzoic acid], the half-inhibitory concentration (IC50) on JAK3 and on TYK2 was below 100 nM in each case.

`O=C(N[C@H]1CC[C@@H](C(=O)O)CC1)c1cccn2c(=O)c3cc(-c4cccnc4)ccc3nc12` [Example 34, (cis)-4-(11-oxo-2-(pyridin-3-yl)-11H-pyrido[2,1-b]quinazoline-6-carboxamido)cyclohexane-1-carboxylic acid]: the IC50 on JAK3 and at TYK2 was below 100 nM in each case.

For the molecule `O=C(N[C@H]1CC[C@H](C(=O)O)CC1)c1cccn2c(=O)c3cc(-c4ccncc4)ccc3nc12` [Example 35, (trans)-4-(11-oxo-2-(pyridin-4-yl)-11H-pyrido[2,1-b]quinazoline-6-carboxamido)cyclohexane-1-carboxylic acid], the IC50 is 100 to 1000 nM at JAK3 and at least 1000 nM at TYK2.

For the molecule `O=C(N[C@H]1CC[C@@H](C(=O)O)CC1)c1cccn2c(=O)c3cc(-c4ccncc4F)ccc3nc12` [Example 36, (cis)-4-(2-(3-fluoropyridin-4-yl)-11-oxo-11H-pyrido[2,1-b]quinazoline-6-carboxamido)cyclohexane-1-carboxylic acid], the 50% inhibitory concentration (IC50) at JAK3 is below 100 nM; at TYK2, 100 to 1000 nM.

On to `O=C(N[C@H]1CC[C@@H](C(=O)O)CC1)c1cccn2c(=O)c3cc(-c4cncnc4)ccc3nc12` [Example 37, (cis)-4-(11-oxo-2-(pyrimidin-5-yl)-11H-pyrido[2,1-b]quinazoline-6-carboxamido)cyclohexane-1-carboxylic acid], for which the half-inhibitory concentration (IC50) on JAK3 was below 100 nM; on TYK2, 100 to 1000 nM.

Turning to `Cn1cc(-c2ccc3nc4c(C(=O)N[C@H]5CC[C@@H](C(=O)O)CC5)cccn4c(=O)c3c2)cn1` [Example 38, (cis)-4-(2-(1-methyl-1H-pyrazol-4-yl)-11-oxo-11H-pyrido[2,1-b]quinazoline-6-carboxamido)cyclohexane-1-carboxylic acid], the IC50 on JAK3 and at TYK2 was below 100 nM throughout.

As for `O=C(N[C@H]1CC[C@@H](C(=O)O)CC1)c1cccn2c(=O)c3cc(-c4cccs4)ccc3nc12` [Example 39, (cis)-4-(11-oxo-2-(thiophen-2-yl)-11H-pyrido[2,1-b]quinazoline-6-carboxamido)cyclohexane-1-carboxylic acid], the IC50 on JAK3 and at TYK2 was below 100 nM in each case.

As for `O=C(N[C@H]1CC[C@@H](C(=O)O)CC1)c1cc(Br)cn2c(=O)c3ccccc3nc12` [Example 40, (cis)-4-(8-bromo-11-oxo-11H-pyrido[2,1-b]quinazoline-6-carboxamido)cyclohexane-1-carboxylic acid], the IC50 is 100 to 1000 nM on JAK3 and below 100 nM at TYK2.

In the case of `O=C(NC1CC(C(=O)O)C1)c1cccn2c(=O)c3cc(C4CC4)ccc3nc12` (stereo not shown) [Example 41, 3-(2-cyclopropyl-11-oxo-11H-pyrido[2,1-b]quinazoline-6-carboxamido)cyclobutane-1-carboxylic acid], the IC50 at JAK3 and on TYK2 was 100 to 1000 nM each time.

Turning to `N#Cc1ccc(-c2ccc3nc4c(C(=O)N[C@H]5CC[C@@H](C(=O)O)CC5)cccn4c(=O)c3c2)s1` [Example 42, (1S,4S)-4-(2-(5-cyanothiophen-2-yl)-11-oxo-11H-pyrido[2,1-b]quinazoline-6-carboxamido)cyclohexane-1-carboxylic acid], the IC50 at JAK3 and at TYK2 was below 100 nM throughout.

Consider `NC(=O)c1ccc(-c2ccc3nc4c(C(=O)N[C@H]5CC[C@@H](C(=O)O)CC5)cccn4c(=O)c3c2)s1` [Example 43, (1S,4S)-4-(2-(5-carbamoylthiophen-2-yl)-11-oxo-11H-pyrido[2,1-b]quinazoline-6-carboxamido)cyclohexane-1-carboxylic acid], for which the IC50 on JAK3 and at TYK2 was below 100 nM throughout.

As for `Cn1cnc(-c2ccc3nc4c(C(=O)N[C@H]5CC[C@@H](C(=O)O)CC5)cccn4c(=O)c3c2)c1` [Example 44, (1S,4S)-4-(2-(1-methyl-1H-Imidazol-4-yl)-11-oxo-11H-pyrido[2,1-b]quinazoline-6-carboxamido)cyclohexane-1-carboxylic acid], the IC50 at JAK3 and at TYK2 was below 100 nM in each case.

On to `O=C(N[C@H]1CC[C@@H](C(=O)O)CC1)c1cccn2c(=O)c3cc(-c4ccc(C5CC5)s4)ccc3nc12` [Example 45, (1S,4S)-4-(2-(5-cyclpropylthiophen-2-yl)-11-oxo-11H-pyrido[2,1-b]quinazoline-6-carboxamido)cyclohexane-1-carboxylic acid], for which the IC50 on JAK3 and at TYK2 was below 100 nM each time.

Consider `O=C(O)c1ccc(-c2ccc3nc4c(C(=O)N[C@H]5CC[C@@H](C(=O)O)CC5)cccn4c(=O)c3c2)s1` [Example 47, 5-(6-(((1s,4s)-4-carboxycyclohexyl)carbamoyl)-11-oxo-11H-pyrido[2,1-b]quinazolin-2-yl)thiophene-2-carboxylic acid], for which the concentration for half-maximal inhibition (IC50) at JAK3 and on TYK2 was below 100 nM each time.
